Structures are written as SMILES.

By CC50 is commonly meant the concentration that lowers cell viability or growth by half. What is called EC50 is the concentration at which the effect is half-maximal.

The nature of data set [1]: Cytotoxicity against MDCK cells assessed as reduction in cell viability after 4 days by MTS assay. In kind it is cell-based, Canis lupus familiaris. The following applies: dog.
Data set [2] deals with Influenza A virus H3N2. Description: Antiviral activity against Influenza A virus H3N2 A/HK/7/87 infected in MDCK cells assessed as reduction in virus induced cytopathic effect after 4 days by microscopy based method. It is filed as functional, organism-based. The settings on record: A/HK/7/87, MDCK, 96 h. (In general: Damage to the host cells serves as the signal in cytopathic effect assays.)

The subject of data set [3] is Influenza A virus H3N2. Description: Antiviral activity against IInfluenza A virus H3N2 A/HK/7/87 infected in MDCK cells after 4 days by MTS assay. It is filed as functional, organism-based. The following applies: A/HK/7/87, MDCK, 96 h. (In general: Tetrazolium assays rely on reduction of a dye to a coloured formazan, in cell work by metabolically active cells.)
The nature of data set [4]: Cytotoxicity against MDCK cells assessed as minimum cytotoxic concentration after 4 days by MTS assay. In kind it is cell-based, Canis lupus familiaris. The following applies: dog.
The nature of data set [5]: Inhibition of influenza H3N2 A/X-31 hemagglutinin 3 expressed in HeLa cells assessed as polykaryon formation preincubated for 15 mins and further incubated for 15 mins with acidic buffer containing compounds at pH 5.2 by giemsa staining based microscopic analysis. In kind it is cell-based, Influenza A virus (A/X-31(H3N2)). The settings on record: Influenza A virus.
Data set [6] can be described thus: Selectivity index, ratio of CC50 for MDCK cells to EC50 for antiviral activity against Influenza H3N2 A/HK/7/87 infected in MDCK cells after 4 days by MTS assay. It is filed as toxicity, cell-based. The settings on record: dog, read-out: Ratio CC50/EC50.

On to `NC12CC3CC(CC(C3)C1)C2` [AMANTADINE], for which the CC50 at 96 h in data set [1] was above 200 µM. For the same compound, the results for the EC50 in data set [2] and in data set [3] were 3.8 µM and 1.2 µM, respectively. Moreover, the MCC at 96 h in data set [4] is above 200 µM.
For the compound `Cc1nc2sccn2c1C(=O)NN1C(=O)C(C)SC12CCC(C)CC2` (centres undefined), the CC50 at 96 h in data set [1] is above 100 µM. The EC50 in data set [2] turned out to be 5 µM; in data set [3] it was 3.2 µM; in data set [5], 1.1 µM. The MCC at 96 h in data set [4] is at least 100 µM. The selectivity ratio at 96 h in data set [6] is above 31.
`CCC1CCC2(CC1)SC(C)C(=O)N2NC(=O)c1[nH]c2ccc(Cl)cc2c1C` (centres undefined): the half-maximal cytotoxic concentration (CC50) at 96 h in data set [1] is 1.5 µM. Besides, the EC50 turned out to be 0.0012 µM in data set [2], 0.00077 µM in data set [3] and 0.88 µM in data set [5]. Also, the MCC at 96 h in data set [4] stood at 3 µM. Besides, the selectivity ratio at 96 h in data set [6] stood at 1950.
Consider `Cc1c(C(=O)NN2C(=O)C(C)SC23CCC(C(C)(C)C)CC3)[nH]c2ccc(Cl)cc12` (centres undefined), for which, in data set [1], the cytotoxic concentration (CC50) at 96 h was 0.9 µM. Besides, the EC50 in data set [2] and in data set [3] was above 100 µM throughout. Further, the MCC at 96 h in data set [4] is at least 4 µM.
As to `Cc1c(C(=O)NN2C(=O)CSC23CC(C)CC(C)(C)C3)[nH]c2ccc(Cl)cc12` (centres undefined), the CC50 at 96 h in data set [1] is above 100 µM. The EC50 in data set [2] and in data set [3] was above 100 µM each time. In addition, the MCC at 96 h in data set [4] was above 100 µM.
Consider `Cc1c(C(=O)NN2C(=O)C(C)SC23CCC(C)CC3)[nH]c2ccc(Cl)cc12` (centres undefined), for which, in data set [1], the cytotoxic concentration (CC50) at 96 h was 2.8 µM. Further, the EC50 came to 0.063 µM in data set [2], 0.045 µM in data set [3] and 2.1 µM in data set [5]. For the same compound, the MCC at 96 h in data set [4] turned out to be 0.87 µM. Also, the selectivity ratio at 96 h in data set [6] was 62.
With `Cc1c(C(=O)NN2C(=O)C(C)SC23CCCC3)[nH]c2ccc(Cl)cc12` (centres undefined), in data set [1], the CC50 at 96 h was above 100 µM. The half-maximal effective concentration (EC50) in data set [2] and in data set [3] was above 100 µM throughout. In addition, the MCC at 96 h in data set [4] was above 100 µM.
Regarding `Cc1c(C(=O)NN2C(=O)CSC23CCCC3)[nH]c2ccc(Cl)cc12`, in data set [1], the CC50 at 96 h is above 100 µM. Also, the EC50 in data set [2] and in data set [3] was above 100 µM throughout. In addition, the MCC at 96 h in data set [4] is above 100 µM.
With `Cc1c(C(=O)NN2C(=O)CSC23CCCC(C)C3)[nH]c2ccc(Cl)cc12` (centres undefined), the 50% cytotoxic concentration (CC50) at 96 h in data set [1] was above 100 µM. In addition, the concentration for a half-maximal effect (EC50) in data set [2] and in data set [3] was above 100 µM each time. Besides, in data set [4], the MCC at 96 h was at least 100 µM.
Turning to `NC(=O)c1ncn([C@@H]2O[C@H](CO)[C@@H](O)[C@H]2O)n1` [RIBAVIRIN], the CC50 at 96 h in data set [1] is above 100 µM. Also, the figures for the EC50 in data set [2] and in data set [3] were 8.4 µM and 4.6 µM, respectively. The MCC at 96 h in data set [4] was at least 100 µM.
For `CCOC(=O)c1c(CSc2ccccc2)n(C)c2cc(Br)c(O)c(CN(C)C)c12` [UMIFENOVIR], the EC50 in data set [5] was 40 µM.
Take `Cc1c(C(=O)NN2C(=O)C(C)SC23CCCCC3)[nH]c2ccc(Cl)cc12` (centres undefined): the CC50 at 96 h in data set [1] is 5.8 µM. Moreover, the EC50 was 0.085 µM in data set [2], 0.063 µM in data set [3] and 1.3 µM in data set [5]. Also, the MCC at 96 h in data set [4] was at least 4 µM. The selectivity ratio at 96 h in data set [6] was determined as 92.
`Cc1c(C(=O)NN2C(=O)CSC23CCC(C(C)(C)C)CC3)[nH]c2ccc(Cl)cc12` (centres undefined): in data set [1], the CC50 at 96 h turned out to be 2.1 µM. Besides, the EC50 in data set [2] and in data set [3] was above 100 µM throughout. Also, the MCC at 96 h in data set [4] was determined as 0.8 µM.
In the case of `Cc1c(C(=O)NN2C(=O)C(C)SC23CC(C)CC(C)(C)C3)[nH]c2ccc(Cl)cc12` (centres undefined), the half-maximal cytotoxic concentration (CC50) at 96 h in data set [1] was determined as 85 µM. For the same compound, the concentration for a half-maximal effect (EC50) in data set [2] and in data set [3] was above 100 µM each time. In addition, in data set [4], the MCC at 96 h is 20 µM.
Turning to `Cc1c(C(=O)NN2C(=O)CSC23CCC(c2ccccc2)CC3)[nH]c2ccc(Cl)cc12` (centres undefined), in data set [1], the CC50 at 96 h is 2.4 µM. Besides, the EC50 in data set [2] and in data set [3] was above 100 µM throughout. In addition, the MCC at 96 h in data set [4] was 5 µM.
Consider `Cc1c(C(=O)NN2C(=O)CSC23CCCCC3C)[nH]c2ccc(Cl)cc12` (centres undefined), for which the CC50 at 96 h in data set [1] was above 100 µM. In addition, the concentration for a half-maximal effect (EC50) in data set [2] and in data set [3] was above 100 µM throughout. Besides, the MCC at 96 h in data set [4] was at least 20 µM.
Regarding `CCC1CCC2(CC1)SCC(=O)N2NC(=O)c1[nH]c2ccc(Cl)cc2c1C` (centres undefined), the CC50 at 96 h in data set [1] turned out to be 94 µM. Moreover, the EC50 in data set [2] and in data set [3] was above 100 µM each time. The MCC at 96 h in data set [4] was at least 4 µM.
As for `Cc1c(C(=O)NN2C(=O)C(C)SC23CCCCC3C)[nH]c2ccc(Cl)cc12` (centres undefined), the CC50 at 96 h in data set [1] was determined as 88 µM. Besides, the 50% effective concentration (EC50) in data set [2] and in data set [3] was above 100 µM each time. For the same compound, the MCC at 96 h in data set [4] is at least 20 µM.
Take `Cc1c(C(=O)NN2C(=O)C(C)SC23CCC(c2ccccc2)CC3)[nH]c2ccc(Cl)cc12` (centres undefined): the CC50 at 96 h in data set [1] worked out at 2.3 µM. Besides, the EC50 in data set [2] and in data set [3] was above 100 µM throughout. Also, the MCC at 96 h in data set [4] came to 1 µM.
Take `Cc1c(C(=O)NN2C(=O)C(C)SC23CCCC(C)C3)[nH]c2ccc(Cl)cc12` (centres undefined): the CC50 at 96 h in data set [1] is 33 µM. Moreover, the results for the EC50 in data set [2], in data set [3] and in data set [5] were 0.031 µM, 0.023 µM and 1.4 µM, respectively. Besides, the MCC at 96 h in data set [4] is at least 4 µM. For the same compound, the selectivity ratio at 96 h in data set [6] worked out at 1440.
Consider `Cc1c(C(=O)NN2C(=O)CSC23CCCCC3)[nH]c2ccc(Cl)cc12`, for which the half-maximal cytotoxic concentration (CC50) at 96 h in data set [1] is above 100 µM. Also, the EC50 in data set [2] and in data set [3] was above 100 µM each time. Also, the MCC at 96 h in data set [4] is above 100 µM.
For `CCCC1CCC2(CC1)SCC(=O)N2NC(=O)c1[nH]c2ccc(Cl)cc2c1C` (centres undefined), the cytotoxic concentration (CC50) at 96 h in data set [1] amounted to 1.3 µM. Besides, the EC50 in data set [2] and in data set [3] was above 100 µM in each case. In addition, the MCC at 96 h in data set [4] was determined as 0.8 µM.
As for `CC(C)(C)c1cc(O)ccc1O` [E319], the EC50 in data set [5] was found to be 9.9 µM.
In the case of `CCCC1CCC2(CC1)SC(C)C(=O)N2NC(=O)c1[nH]c2ccc(Cl)cc2c1C` (centres undefined), in data set [1], the CC50 at 96 h was 1.9 µM. The EC50 in data set [2] and in data set [3] was above 100 µM in each case. Moreover, in data set [4], the MCC at 96 h came to 0.8 µM.
As to `Cc1c(C(=O)NN2C(=O)CSC23CCC(C)CC3)[nH]c2ccc(Cl)cc12` (centres undefined), the CC50 at 96 h in data set [1] was above 100 µM. Besides, the EC50 in data set [2] and in data set [3] was above 100 µM in each case. In addition, in data set [4], the MCC at 96 h was at least 100 µM.

The values above are taken from ChEMBL document CHEMBL4609985, “Superior inhibition of influenza virus hemagglutinin-mediated fusion by indole-substituted spirothiazolidinones” (Bioorg Med Chem, 2020).
